{
  "source": "patent US12594282B2",
  "about": "“Use of small molecule compounds in the treatment of diseases mediated by lung epithelial cell injury and/or vascular endothelial cell injury” (Guangzhou Cellprotek Pharmaceutical Co., Ltd., priority 2020, dated 2026)",
  "key": {"[1]": {"tested_on": "acute hypobaric hypoxia-induced lung injury", "assay": "Acute hypobaric hypoxia-induced lung injury in Macaca fascicularis (HE pathology)", "format": "in vivo", "details": "7500 meters for 48 hours", "protocol": "Twenty-four healthy male Macaca fascicularis, 6 to 6.5 years-old, weighted 6.5-7.5 kg, were purchased from Kangda Laboratory Animal Center, Gaoyao City, Guangdong, China, in which 17 male Macaca fascicularis were divided into 3 groups, as shown in the following table:\nThree Macaca fascicularis housed in the animal room were randomly selected each time. For each animal, 10 ml of blood was collected, and 10 ml of glucose normal saline was injected intravenously, and marked. The animals were then housed in a low-pressure chamber for 1 day to acclimate to the experimental environment. In the acute hypobaric hypoxia group, the altitude was simulated to 3000 meters at a speed of 3 m/s; after the animals stayed in the low-pressure chamber at a simulated altitude of 3000 meters for 30 minutes, 10 ml of blood was taken from each animal and 10 ml of glucose saline was injected intravenously; the altitude was then simulated to 4500 meters at a speed of 3 m/s; after the animals stayed in the low-pressure chamber at a simulated altitude of 4500 meters for 30 minutes, 10 ml of blood was taken from each animal and 10 ml of glucose saline was injected intravenously; the altitude was simulated to 6000 meters at a speed of 3 m/s; after the animals stayed in the low-pressure chamber at a simulated altitude of 6000 meters for 30 minutes, 10 ml of blood was taken from each animal and 10 ml of glucose saline was injected intravenously; the altitude was simulated to 7500 meters at a speed of 2 m/s; after the animals stayed at a simulated altitude of 7500 meters in the low-pressure chamber for 24 hours, the altitude was lowered to 6000 meters at a speed of 3 m/s, and 10 ml of blood was taken from each animal and 10 ml of glucose saline was injected intravenously; the altitude was simulated to 7500 meters at a speed of 2 m/s; after staying at 7500 meters for 48 hours, the altitude was lowered to 6000 meters at a speed of 3 m/s, the animals were anesthetized (0.06 ml/kg ketamine hydrochloride injection, 0.02 ml/kg xylazine hydrochloride injection), and sacrificed by carotid bloodletting, and dissected and subject to sampling, and the samples were then fixed. The Macaca fascicularis in the normobaric normoxia control group were anesthetized (0.06 ml/kg ketamine hydrochloride injection, 0.02 ml/kg xylazine hydrochloride injection) in the plain (an altitude of 352 meters), then sacrificed by carotid bloodletting, and dissected and subject to sampling, and the samples were then fixed. […]"}, "PFKFB3": {"tested_on": "PFKFB3", "assay": "Glutamate-induced PFKFB3 expression in primary cerebellar granule neurons (Western blot)", "format": "cell-based, mice", "details": "10 μM, pre-incubation 20 mins; 200 μM glutamate for 5 mins and 15 mins", "protocol": "The cells were obtained from SD P7-8 neonatal mice. The cerebellum was taken, and the meninges and blood vessels were removed using microtweezers; the isolated cerebellar tissue was transferred to another dish containing dissection solution. The tissue was cut into pieces as small as possible using a tissue scissor. Digestion: The tissue in pieces was added into 7 mL of 0.25% trypsin digestive solution with a pipet, and was digested at 37° C. for 15 mins; the bench surface was cleaned and the instruments were washed. The container was turned upside down several times every five minutes to bring the tissue into better contact with the digestive solution. End of digestion: After the digestion, it can be seen that the tissue was sticked together and suspended in the liquid due to cell disruption and release of DNA. The digestion was terminated by adding 3 mL of […] 10% FBS DMEM medium. The container was turned upside down several times, and it can be observed that the remaining tissue dispersed due to DNA hydrolysis. Centrifugation was performed at 1000 rpm for 5 mins. As much supernatant as possible was carefully removed. Collection of single cell suspension: 7 mL of DNase-containing 10% FBS DMEM medium was taken with a pipet, by which the tissue pellet was gently pipeted. […] The cells were counted with a hand-held cell counter, and the seeding density was 4.0-5.0×10^5 cells/mL. […]"}},
  "data": [
    {"smiles": "C[C@@]12CCCC1C1C[C@@H](O)[C@]3(O)C[C@@H](O)CC[C@]3(C)C1CC2", "note": "(stereo partly drawn) [YC-6, 5α-androst-3β,5,6β-triol]", "values": [
      {"measurement": "alveolar septal thickening caused by acute hypobaric hypoxia", "setting": "[1]; 100 mg/kg/two days (i.v. solution and i.m. sustained-release formulation)", "value": "significantly reduced the alveolar septal thickening injury"},
      {"measurement": "fibrous hyperplasia of alveolar septa, protein hyaline membrane formation and erythrocyte leakage into the alveolar space", "setting": "[1]; 100 mg/kg/two days", "value": "no such obvious changes were observed"},
      {"measurement": "inflammatory infiltration and shedding of damaged lung epithelial cells", "setting": "[1]; 100 mg/kg/two days", "value": "no obvious inflammatory infiltration and shedding of damaged lung epithelial cells were observed"},
      {"measurement": "pulmonary vascular congestion and swelling", "setting": "[1]; 100 mg/kg/two days", "value": "significantly inhibited pulmonary vascular congestion and swelling"},
      {"measurement": "glutamate-induced up-regulation of intracellular PFKFB3 expression", "setting": "PFKFB3", "value": "significantly inhibited this rapid increase"}
    ]}
  ]
}
